Assay results: BindingDB's records for doi:10.1021/acs.biochem.6b00486 (Academia Sinica, 2016)

Legend:
[1] = target: T1, IspB protein (Escherichia coli (strain 55989 / EAEC), UniProt B7LHQ0); experiment: Radioactive Assay
[2] = target: T1, IspB protein; experiment: Fluorescent Assay

T1 sequence (B7LHQ0 whole entry): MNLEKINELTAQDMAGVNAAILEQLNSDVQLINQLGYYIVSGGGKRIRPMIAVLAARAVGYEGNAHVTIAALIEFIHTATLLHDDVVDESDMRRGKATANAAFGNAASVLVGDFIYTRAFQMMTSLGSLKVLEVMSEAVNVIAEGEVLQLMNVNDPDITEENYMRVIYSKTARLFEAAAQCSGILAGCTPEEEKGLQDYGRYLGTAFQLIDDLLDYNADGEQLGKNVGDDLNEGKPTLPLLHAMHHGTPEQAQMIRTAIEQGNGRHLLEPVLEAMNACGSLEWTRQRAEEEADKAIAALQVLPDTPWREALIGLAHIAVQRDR

O=P(O)(O)C(O)(Cn1ccnc1)P(=O)(O)O
IC50 [1]: 290 nM
IC50 [2]: 220 nM
